ChEMBL document CHEMBL1153804, “Optimization of a series of quinazolinone-derived antagonists of CXCR3” (Bioorg Med Chem Lett, 2009)

Target: T1, C-X-C chemokine receptor type 3 (Homo sapiens, UniProt P49682)
T1 sequence (P49682 whole entry): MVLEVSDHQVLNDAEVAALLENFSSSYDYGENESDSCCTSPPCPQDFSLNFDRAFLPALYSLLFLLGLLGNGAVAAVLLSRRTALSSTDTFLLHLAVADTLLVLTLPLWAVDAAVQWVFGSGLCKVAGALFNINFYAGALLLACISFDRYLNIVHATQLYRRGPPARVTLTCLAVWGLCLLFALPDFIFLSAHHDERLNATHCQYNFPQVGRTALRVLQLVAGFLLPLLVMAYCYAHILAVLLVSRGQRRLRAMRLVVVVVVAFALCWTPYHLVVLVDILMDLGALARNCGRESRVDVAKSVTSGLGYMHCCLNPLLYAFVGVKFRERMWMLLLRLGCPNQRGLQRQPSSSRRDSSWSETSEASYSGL
Experiment: Displacement of [125I]-1P10 from human CXCR3 expressed in PBMC after 2 hrs in RPMI buffer by scintillation counting

IC50	Structure (SMILES)
40 nM	CCOc1ccc(-n2c([C@@H](C)N(Cc3cccnc3)C(=O)Cc3ccc(F)c(F)c3)nc3ccccc3c2=O)cc1
7 nM	CCOc1ccc(-n2c([C@@H](C)N(Cc3cccnc3)C(=O)Cc3cc(C(F)(F)F)cc(C(F)(F)F)c3)nc3ccccc3c2=O)cc1
8 nM	CCOc1ccc(-n2c([C@@H](C)N(Cc3cccnc3)C(=O)Cc3cc(F)c(F)c(F)c3)nc3ccccc3c2=O)cc1
5 nM	CCOc1ccc(-n2c([C@@H](C)N(C(=O)Cc3ccc(F)c(C(F)(F)F)c3)C3CCOCC3)nc3ncccc3c2=O)cc1
42 nM	CCOc1ccc(-n2c([C@@H](C)N(Cc3cccnc3)C(=O)Cc3ccc(F)c(C(F)(F)F)c3)nc3nccnc3c2=O)cc1
11 nM	CCOc1ccc(-n2c([C@@H](C)N(Cc3cccnc3)C(=O)Cc3cccc(C(F)(F)F)c3)nc3ccccc3c2=O)cc1
5 nM	CCOc1ccc(-n2c([C@@H](C)N(C[C@@H]3CCCN3C(C)C)C(=O)Cc3ccc(F)c(C(F)(F)F)c3)nc3ncccc3c2=O)cc1
2090 nM	CCOc1ccc(-n2c([C@@H](C)N(Cc3cccnc3)C(=O)CCc3ccc(C(F)(F)F)cc3)nc3ccccc3c2=O)cc1
21 nM	CCOc1ccc(-n2c([C@@H](C)N(Cc3cccnc3)C(=O)Cc3ccc(C#N)cc3)nc3ccccc3c2=O)cc1
2 nM	CCOc1ccc(-n2c([C@@H](C)N(Cc3cc(C)no3)C(=O)Cc3ccc(F)c(C(F)(F)F)c3)nc3ncccc3c2=O)cc1
2 nM	CCOc1ccc(-n2c([C@@H](C)N(CC3CCN(C)CC3)C(=O)Cc3ccc(F)c(C(F)(F)F)c3)nc3ncccc3c2=O)cc1
7 nM	CCOc1ccc(-n2c([C@@H](C)N(Cc3cccnc3)C(=O)Cn3cnc(C(F)(F)F)c3)nc3ccccc3c2=O)cc1
2 nM	CCOc1ccc(-n2c([C@@H](C)N(C[C@H]3CCCN3C(C)C)C(=O)Cc3ccc(F)c(C(F)(F)F)c3)nc3ncccc3c2=O)cc1
110 nM	CCOc1ccc(-n2c([C@@H](C)N(Cc3cccnc3)C(=O)Cc3ccc(F)c(C(F)(F)F)c3)nc3cccnc3c2=O)cc1
770 nM	CCOc1ccc(-n2c([C@@H](C)N(Cc3cccnc3)C(=O)Cc3ccc(S(C)(=O)=O)cc3)nc3ccccc3c2=O)cc1
1 nM	CCOc1ccc(-n2c([C@@H](C)N(C(=O)Cc3ccc(F)c(C(F)(F)F)c3)C3CCN(C(C)C)CC3)nc3ncccc3c2=O)cc1
2 nM	CCOc1ccc(-n2c([C@@H](C)N(C[C@H]3CCCN3)C(=O)Cc3ccc(F)c(C(F)(F)F)c3)nc3ncccc3c2=O)cc1
4 nM	CCOc1ccc(-n2c([C@@H](C)N(Cc3ccc[n+]([O-])c3)C(=O)Cc3ccc(OC(F)(F)F)cc3)nc3ncccc3c2=O)cc1
210 nM	CCOc1ccc(-n2c([C@@H](C)N(Cc3cccnc3)C(=O)Cc3nc4ccc(C(F)(F)F)cc4[nH]3)nc3ccccc3c2=O)cc1
32 nM	CCOc1ccc(-n2c([C@@H](C)N(Cc3cccnc3)C(=O)Cc3ccc(F)c(C(F)(F)F)c3)nc3cnccc3c2=O)cc1
690 nM	CCOc1ccc(-n2c([C@@H](C)N(Cc3cccnc3)C(=O)CN3CCN(CCC(F)(F)F)CC3)nc3ccccc3c2=O)cc1
6 nM	CCOc1ccc(-n2c([C@@H](C)N(C(=O)Cc3ccc(F)c(C(F)(F)F)c3)C3CCN(C(C)=O)CC3)nc3ncccc3c2=O)cc1
5 nM	CCOc1ccc(-n2c([C@@H](C)N(Cc3cccnc3)C(=O)Cc3ccc(F)c(C(F)(F)F)c3)nc3ncccc3c2=O)cc1

System: Blood
Experiment: Drug level in bleomycin-induced mouse blood at 10 mg/mL, sc
Type: ADME, tissue-based

Drug uptake	Structure (SMILES)
104 ng/mL	CCOc1ccc(-n2c([C@@H](C)N(Cc3cccnc3)C(=O)Cc3ccc(OC(F)(F)F)cc3)nc3ncccc3c2=O)cc1

System: Blood
Experiment: Drug level in bleomycin-induced mouse blood at 3 mg/mL, sc
Type: ADME, tissue-based

Drug uptake	Structure (SMILES)
26 ng/mL	CCOc1ccc(-n2c([C@@H](C)N(Cc3cccnc3)C(=O)Cc3ccc(OC(F)(F)F)cc3)nc3ncccc3c2=O)cc1
19 ng/mL	CCOc1ccc(-n2c([C@@H](C)N(Cc3ccc[n+]([O-])c3)C(=O)Cc3ccc(OC(F)(F)F)cc3)nc3ncccc3c2=O)cc1

System: Blood
Experiment: Drug level in bleomycin-induced mouse blood at 1 mg/mL, sc
Type: ADME, tissue-based

Drug uptake	Structure (SMILES)
19 ng/mL	CCOc1ccc(-n2c([C@@H](C)N(Cc3cccnc3)C(=O)Cc3ccc(OC(F)(F)F)cc3)nc3ncccc3c2=O)cc1
14 ng/mL	CCOc1ccc(-n2c([C@@H](C)N(Cc3ccc[n+]([O-])c3)C(=O)Cc3ccc(OC(F)(F)F)cc3)nc3ncccc3c2=O)cc1
